Data on 19 compounds can be found in patent US20070276030A1, “Pyranobenzothiophene derivatives to treat infection with hepatitis c virus” (priority 2003, published 2007).

For test [1], the target named is T1, HCV RdRp NS5B d21BK (BK strain, genotype 1b) (Hepatitis C virus genotype 1b, UniProt P26663).
T1 construct: NS5B from the BK strain (genotype 1b) is expressed in E. coli as a protein in which the 21 C-terminal amino acids are replaced; made in house; host or cells: E. coli
Briefly: Hepatitis C polymerase (NS5B) inhibition, radioactive filter assay. The format is biochemical. As to conditions: for inhibition at 20 µM: read-out: HCV pol % inh at 20 μM. The source says: The ability of the compounds of the present invention to inhibit Hepatitis C Polymerase was established by the following experimental procedure:
NS5B from the BK strain (genotype 1b) is expressed in E. coli as a protein in which the 21 C-terminal amino acids are replaced with a short linker and a hexahistidine tag ([…]). The purified protein is mixed with radioactive nucleotides and allowed to replicate a heteropolymeric RNA substrate, primed by an endogenous short hairpin, resulting in an approximately 760 nt product. The radioactive product is captured on a filter and quantitated after removal of the unincorporated nucleotides.
Dilute nucleotides 1:1000 to 10 μM (GTP and CTP) or 1:100 to 100 μM (ATP and UTP) into RNase free water.
(1) Compounds 10 μl at 10 μg/ml in 15% Dimethylsulfoxide (DMSO)
Add 20 μl enzyme mix into each well of the assay plate. Incubate compound and enzyme at room temperature for 15 minutes.
(3) Template Mix—Prepare Ahead
Spin down a tube of RNA (5 μg/tube stored in 75% ethanol and 0.3 M sodium acetate) in a microcentrifuge for 20 minutes at 4° C. One tube is enough for 1-1.5 plates. Remove as much ethanol from the tube as possible by inverting the tube. Be gentle, pellet RNA may not adhere to the tube. Vacuum dry the RNA. Resuspend the RNA by adding 1 ml of DEPC water, close the cap of the tube tightly. To dissolve RNA, incubate RNA solution on ice for ˜60 minutes and gently vortex. Spin briefly to ensure all RNA solution is down to the bottom of the tube before opening cap. Gently transfer RNA solution into a 5 ml or larger tube. Add another 3 ml of DEPC water (total 4 ml of volume).
Add the following volumes of reagents
Add 20 μl template mix per reaction (i.e. 20 ng of pOF per reaction or ˜3 nM). (4) Incubate reaction at room temperature (22-25° C.) for 2 hours. (5) Stop reaction by adding 50 μl of 170 mM EDTA.
Final concentration of EDTA is 85 mM.
(6) Prewet filters of Millipore multiscreen assay plate by adding […] of 0.5 M sodium phosphate buffer, pH 7.0 into each well. Let stand at room temperature for 2-3 minutes.
(7) Place the multiscreen filter plate onto a Millipore Manifold and turn on vacuum to allow buffer to flow through. Turn off vacuum. Transfer 80 μl of the reaction product into each well of the filter plate. Let stand for 2-3 minutes. Turn on vacuum to filter reaction product.
(8) Turn off vacuum. Add 200 μl of 0.5 M sodium phosphate buffer, pH 7.0 into each well to wash filter. Turn on vacuum.
Repeat step (8) three more times.
(9) Remove polypropylene bottom. Spot dry filter at the bottom with paper towel. Air dry filter plate on a bench for 1 hour. Add 40 μl Super Mix scintillant. Seal top of the plate with a tape. Place plate into a Packard carrier or micro-beta carrier.
(10) Count plate using a Packard Topcount or micro-beta counter. Count (for example using Program 10) for ^33P in Top count or ^33P program in micro-beta.
Percent inhibition is calculated after background subtraction as a percent reduction of activity relative to the positive control (average value of the plate excluding the negative controls). For the primary screen hits were chosen as showing ≧75% inhibition.
See. Ferrari et al. 1999. J. Virology 73:1649-1654: “Characterization of soluble Hepatitis C virus RNA-dependent RNA polymerase expressed in E. coli and Takamizawa et all 1991” and J. Virology 65:1105-1113: “Structure and characterization of the Hepatitis C virus genome isolated from human carriers,” both references are hereby incorporated by reference in their entireties, specifically methods of testing inhibition of Hepatitis C Polymerase with test compounds.

The conditions of test [2]: U.S. Pat. No. 4,021,451; cited from earlier work.

Where two headings read alike, the source gives them in different places. A value given as a limit tells only on which side of the number the result lay.

T1 sequence (P26663 2420-2989): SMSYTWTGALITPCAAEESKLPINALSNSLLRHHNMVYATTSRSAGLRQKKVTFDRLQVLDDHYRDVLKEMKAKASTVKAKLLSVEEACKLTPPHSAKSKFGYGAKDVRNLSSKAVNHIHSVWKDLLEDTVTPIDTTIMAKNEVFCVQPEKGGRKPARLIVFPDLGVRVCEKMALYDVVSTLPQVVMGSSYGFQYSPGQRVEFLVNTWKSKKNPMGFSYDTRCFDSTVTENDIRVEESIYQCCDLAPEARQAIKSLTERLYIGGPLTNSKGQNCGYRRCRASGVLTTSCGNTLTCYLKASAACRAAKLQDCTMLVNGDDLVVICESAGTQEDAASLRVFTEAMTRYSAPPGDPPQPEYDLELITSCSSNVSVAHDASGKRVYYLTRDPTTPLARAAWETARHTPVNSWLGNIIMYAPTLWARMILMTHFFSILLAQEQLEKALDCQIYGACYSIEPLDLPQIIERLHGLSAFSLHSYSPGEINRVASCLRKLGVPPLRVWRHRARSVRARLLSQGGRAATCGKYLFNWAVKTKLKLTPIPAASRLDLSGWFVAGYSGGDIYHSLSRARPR

What is called IC50 is the midpoint of a concentration-inhibition curve. With `CCCC1(CC(=O)O)OCCc2c1sc1c(C)ccc(Br)c21` (stereo not drawn) [Example 1, (5-bromo-8-methyl-1-propyl-3,4-dihydro-1H-[1]benzothieno[2,3-c]pyran-1-yl)acetic acid], in test [1], the IC50 was determined as 0.18 µM.
Regarding `CCCC1(CC(=O)O)OCCc2c1sc1c(C)ccc(C#N)c21` (stereo not drawn) [Example 2, (5-cyano-8-methyl-1-propyl-3,4-dihydro-1H-[1]benzothieno[2,3-c]pyran-1-yl)acetic acid], the half-maximal inhibitory concentration (IC50) in test [1] was determined as 17.7 µM.
In the case of `CCC[C@]1(CC(=O)O)OCCc2c1sc1c(C)ccc(C#N)c21` [Example 3, [(1R)-5-cyano-8-methyl-1-propyl-3,4-dihydro-1H-[1]benzothieno[2,3-c]pyran-1-yl]acetic acid], the IC50 in test [1] was 0.62 µM.
On the same count and under the same terms, next, `CCC[C@@]1(CC(=O)O)OCCc2c1sc1c(C)ccc(C#N)c21` [Example 4, [(1S)-5-cyano-8-methyl-1-propyl-3,4-dihydro-1H-[1]benzothieno[2,3-c]pyran-1-yl]acetic acid]: 1.9 µM.
In the case of `CCCC1(CC(=O)O)OCCc2c1sc1c(Cl)ccc(Cl)c21` (stereo not drawn) [Example 5, (5,8-dichloro-1-propyl-3,4-dihydro-1H-[1]benzothieno[2,3-c]pyran-1-yl)acetic acid], in test [1], the IC50 is > 20 µM and the inhibition at 20 µM was < 10%.
Regarding `CC1(CC(=O)O)OCCc2c1sc1c(Cl)ccc(Cl)c21` (stereo not drawn) [Example 6, (5,8-chloro-1-methyl-3,4-dihydro-1H-[1]benzothieno[2,3-c]pyran-1-yl)acetic acid], the concentration for half-maximal inhibition (IC50) in test [1] (NS5B BK strain, read-out: HCV pol BK IC50) stood at 0.28 µM.
Consider `CCCCC1(CC(=O)O)OCCc2c1sc1c(Cl)ccc(Cl)c21` (stereo not drawn) [Example 7, (1-butyl-5,8-dichloro-3,4-dihydro-1H-[1]benzothieno[2,3-c]pyran-1-yl)acetic acid], for which the IC50 in test [1] is 0.32 µM.
The same measure, in the same setting: the value for `CCC1(CC(=O)O)OCCc2c1sc1c(Cl)ccc(Cl)c21` (stereo not drawn) [Example 8, (5,8-dichloro-1-ethyl-3,4-dihydro-1H-[1]benzothieno[2,3-c]pyran-1-yl)acetic acid] was 0.17 µM.
Consider `CCCC1(CC(=O)O)OCCc2c1sc1c(C)cc(F)cc21` (stereo not drawn) [Example 9, (6-fluoro-8-methyl-1-propyl-3,4-dihydro-1H-[1]benzothieno[2,3-c]pyran-1-yl)acetic acid], for which the half-maximal inhibitory concentration (IC50) in test [1] is 2.9 µM.
As for `CCCC1(CC(=O)O)OCCc2c1sc1c(C)cc(F)c(C#N)c21` (stereo not drawn) [Example 10, (5-cyano-6-fluoro-8-methyl-1-propyl-3,4-dihydro-1H-[1]benzothieno[2,3-c]pyran-1-yl)acetic acid], the IC50 in test [1] came out at 0.13 µM.
As to `CCC[C@@]1(CC(=O)O)OCCc2c1sc1c(C)cc(F)c(C#N)c21` [Example 12, [(1S)-5-cyano-6-fluoro-8-methyl-1-propyl-3,4-dihydro-1H-[1]benzothieno[2,3-c]pyran-1-yl]acetic acid], the IC50 in test [1] amounted to 5.4 µM.
`CC1(CC(=O)O)OCCc2c1sc1ccccc21` (stereo not drawn) [Example 13, (1-methyl-3,4-dihydro-1H-[1]benzothieno[2,3-c]pyran-1-yl)acetic acid]: in test [1], the IC50 was > 20 µM and the inhibition at 20 µM was < 10%.
As for `CCC1(CC(=O)O)OCCc2c1sc1ccccc21` (stereo not drawn) [Example 14, (1-ethyl-3,4-dihydro-1H-[1]benzothieno[2,3-c]pyran-1-yl)acetic acid], in test [1], the half-inhibitory concentration (IC50) was > 20 µM and the inhibition at 20 µM was < 10%.
In the case of `CCCC1(CC(=O)O)OCCc2c1sc1ccccc21` (stereo not drawn) [Example 15, (1-propyl-3,4-dihydro-1H-[1]benzothieno[2,3-c]pyran-1-yl)acetic acid], in test [1], the IC50 was > 20 µM and the inhibition at 20 µM was < 10%.
With `CCCCC1(CC(=O)O)OCCc2c1sc1ccccc21` (stereo not drawn) [Example 16, (1-butyl-3,4-dihydro-1H-[1]benzothieno[2,3-c]pyran-1-yl)acetic acid], in test [1], the half-maximal inhibitory concentration (IC50) was > 20 µM and the inhibition at 20 µM was < 10%.
As to `O=C(O)CC1(c2ccccc2)OCCc2c1sc1ccccc21` (stereo not drawn) [Example 17, (1-phenyl-3,4-dihydro-1H-[1]benzothieno[2,3-c]pyran-1-yl)acetic acid], in test [1], the half-inhibitory concentration (IC50) was > 20 µM and the inhibition at 20 µM stood at 27%.
As to `CC(C)C1(CC(=O)O)OCCc2c1sc1ccccc21` (stereo not drawn) [Example 18, (1-isopropyl-3,4-dihydro-1H-[1]benzothieno[2,3-c]pyran-1-yl)acetic acid], in test [1], the half-maximal inhibitory concentration (IC50) is > 20 µM and the inhibition at 20 µM is < 10%.
The like results for `CCOC(=O)CC1(CC(=O)O)OCCc2c1sc1ccccc21` (stereo not drawn) [Example 19, [1-(2-ethoxy-2-oxoethyl)-3,4-dihydro-1H-[1]benzothieno[2,3-c]pyran-1-yl]acetic acid] were, in that order, > 20 µM and < 10%.
Turning to `CC1(c2ccc(CC(=O)O)cc2)OCCc2c1sc1ccccc21` (stereo not drawn) [[p-(3,4-dihydro-1-methyl-1H-[1]benzothieno[2,3-c]pyran-1-yl)phenyl]-acetic acid], the “biological activity such as antiinflammatory or antibacterial or antifungal activity” value in test [2] is listed as “lacks any biological activity”.
